From patent publication US20260167623A1 (NIKANG THERAPEUTICS, INC., priority 2022, published 2026)

Target: T1, CDK2 (Homo sapiens, UniProt P24941)
T1 construct: High-Throughput Measurement of Cellular Endogenous CDK2; endogenous in cells; host or cells: OVCAR3
Experiment: Inhibition of CDK2: phospho-Rb (S807/811) HTRF measurement in OVCAR3 cells, 24 h
Assay type: cell-based
Details: 24 h compound treatment, read-out: pRB_OVCAR3_24h
Procedure: Inhibition of CDK2: Phospho-R^b Measurement in Cells
Phosphorylation of RB protein at S807/811 were measured using HTRF phospho-RB cellular kits (Cat #64RBS807PEG) from Cisbio.
On Day 1, OVCAR3 (CDK2 dependent cell line) cells were seeded into 96-well tissue-culture treated plates at 20,000 cells/well in 200 μL and incubated overnight at 37° C. in CO2 atmosphere. On Day 2, the cells were treated with test compounds at concentrations from 0.3 to 10,000 nM using HP D300 digital dispenser. Twenty-four hours after compound treatment, cell culture media is removed by flicking the plate and tapping the plate against clean paper towel. 30 μL 1× lysis buffer was supplemented from the kit was added to each well and the plate was incubated at room temperature on shaker for 30 min. After homogenization by pipetting up and down, 8 μL cell lysate from 96-well cell culture plate was transferred to 384-well small volume white detection plate. 2 μL premixed detection solution was added and the plate was covered with sealer. To prepare the detection solution, d2 conjugated-phospho-RB antibody and Eu-cryptate conjugated phosphor-RB antibody were diluted into detection buffer following manufacturer's instruction. Detection plates were incubated for 4 h at room temperature and read on ClarioStar (BMG Labtech) in TR-FRET mode (665 nM and 620 nM). The TR-FRET ratio (665 nM/620 nM) was plotted against the compound concentration and normalized to DMSO controls. Half maximal inhibition concentration (IC50) values were calculated with a four-parameter logistic fit using GraphPad Prism (version 8; La Jolla, CA).

SMILES | IC50 [nM]
Cn1nc(N2CCC(=O)NC2=O)c2ccc(N3CCN(Cc4cccc(S(=O)(=O)[C@H]5CC[C@H](Nc6ncc(Cl)cn6)CC5)c4)CC3)cc21 [Example 67, 1-(6-(4-(3-(((1r,4r)-4-((5-chloropyrimidin-2-yl)amino)cyclohexyl)sulfonyl)benzyl)piperazin-1-yl)-1-methyl-1H-indazol-3-yl)dihydropyrimidine-2,4(1H,3H)-dione] | > 2500
Cn1nc(N2CCC(=O)NC2=O)c2ccc(N3CCN(CC4CCN(c5cccc(S(=O)(=O)N6CCC(Nc7ncc(Cl)cn7)CC6)c5)CC4)C4CC43)cc21 (centres unmarked) [Example 143, 1-(6-(5-((1-(3-((4-((5-chloropyrimidin-2-yl)amino)piperidin-1-yl)sulfonyl)phenyl)-piperidin-4-yl)methyl)-2,5-diazabicyclo-[4.1.0]heptan-2-yl)-1-methyl-1H-indazol-3-yl)dihydropyrimidine-2,4(1H,3H)-dione] | 500 to 2500
Cn1c(=O)n(C2CCC(=O)NC2=O)c2cc(C3CCN(CC4CCN(c5cccc(S(=O)(=O)N6CCC(Nc7ncc(C(F)(F)F)cn7)CC6)c5)CC4)CC3)ccc21 (centres unmarked) [Example 167, 3-(3-methyl-2-oxo-6-(1-((1-(3-((4-((5-(trifluoromethyl)pyrimidin-2-yl)amino)piperidin-1-yl)sulfonyl)phenyl)piperidin-4-yl)methyl)piperidin-4-yl)-2,3-dihydro-1H-benzo[d]imidazol-1-yl)piperidine-2,6-dione] | 500 to 2500
Cn1nc(N2CCC(=O)NC2=O)c2ccc(C3CCN(Cc4cnn(C5CCN(S(=O)(=O)N6CCC(Nc7ncc(Cl)cn7)CC6)CC5)c4)CC3)cc21 [Example 163, 1-(6-(1-((1-(1-((4-((5-chloropyrimidin-2-yl)amino)piperidin-1-yl)sulfonyl)piperidin-4-yl)-1H-pyrazol-4-yl)methyl)piperidin-4-yl)-1-methyl-1H-indazol-3-yl)dihydropyrimidine-2,4(1H,3H)-dione] | > 2500
Cn1nc(N2CCC(=O)NC2=O)c2ccc(C3CCN(CC4(C#N)CCN(c5cccc(S(=O)(=O)N6CCC(Nc7ncc(Cl)cn7)CC6)c5)CC4)CC3)cc21 [Example 164, 1-(3-((4-((5-chloropyrimidin-2-yl)amino)piperidin-1-yl)sulfonyl)phenyl)-4-((4-(3-(2,4-dioxotetrahydropyrimidin-1(2H)-yl)-1-methyl-1H-indazol-6-yl)piperidin-1-yl)methyl)piperidine-4-carbonitrile] | > 2500
CN(Cc1cccc(S(=O)(=O)N2CCC(Nc3ncc(C(F)(F)F)cn3)CC2)c1)CC1CCN(c2ccc3c(N4CCC(=O)NC4=O)nn(C)c3c2)CC1 [Example 88, 1-(1-methyl-6-(4-((methyl(3-((4-((5-(trifluoromethyl)pyrimidin-2-yl)amino)-piperidin-1-yl)sulfonyl)benzyl)amino)-methyl)piperidin-1-yl)-1H-indazol-3-yl)dihydropyrimidine-2,4(1H,3H)-dione] | 500 to 2500
Cn1nc(N2CCC(=O)NC2=O)c2ccc(C3CCN(Cc4ccc(S(=O)(=O)N5CCC(Nc6ncc(OC(F)F)cn6)CC5)cc4)CC3)c(F)c21 [Example 242, 1-(6-(1-(4-((4-((5-(difluoromethoxy)pyrimidin-2-yl)amino)piperidin-1-yl)sulfonyl)benzyl)piperidin-4-yl)-7-fluoro-1-methyl-1H-indazol-3-yl)dihydropyrimidine-2,4(1H,3H)-dione] | 500 to 2500
Cn1nc(C2CCC(=O)NC2=O)c2ccc(C3CCN(CC4CCN(c5cccc(S(=O)(=O)N6CCC(Nc7ncc(Cl)cn7)CC6)c5)CC4)CC3)cc21 (centres unmarked) [Example 246, 3-(6-(1-((1-(3-((4-((5-chloropyrimidin-2-yl)amino)piperidin-1-yl)sulfonyl)phenyl)piperidin-4-yl)methyl)piperidin-4-yl)-1-methyl-1H-indazol-3-yl)piperidine-2,6-dione] | 500 to 2500
Cn1nc(N2CCC(=O)NC2=O)c2ccc(N3CCC(NCc4cccc(S(=O)(=O)N5CCC(Nc6ncc(Cl)cn6)CC5)c4)CC3)cc21 [Example 84, 1-(6-(4-((3-((4-((5-chloropyrimidin-2-yl)amino)piperidin-1-yl)sulfonyl)benzyl)-amino)piperidin-1-yl)-1-methyl-1H-indazol-3-yl)dihydropyrimidine-2,4(1H,3H)-dione] | > 2500
Cn1nc(N2CCC(=O)NC2=O)c2ccc(C#CCN3CCN(c4cccc(S(=O)(=O)N5CCC(Nc6ncc(Cl)cn6)CC5)c4)CC3)cc21 [Example 231, 1-(6-(3-(4-(3-((4-((5-chloropyrimidin-2-yl)amino)piperidin-1-yl)sulfonyl)phenyl)piperazin-1-yl)prop-1-yn-1-yl)-1-methyl-1H-indazol-3-yl)dihydropyrimidine-2,4(1H,3H)-dione] | 500 to 2500

Further lines, results first:

IC50 [nM] | SMILES
500 to 2500 | O=C1CCC(NC(=O)c2ccc(C3CCN(CC4CCN(c5cccc(S(=O)(=O)N6CCC(Nc7ncc(Cl)cn7)CC6)c5)CC4)CC3)cc2F)C(=O)N1 (centres unmarked) [Example 237, 4-(1-((1-(3-((4-((5-chloropyrimidin-2-yl)amino)piperidin-1-yl)sulfonyl)phenyl)piperidin-4-yl)methyl)piperidin-4-yl)-N-(2,6-dioxopiperidin-3-yl)-2-fluorobenzamide]
1 to 100 | Cn1c(=O)n(C2CCC(=O)NC2=O)c2cccc(C3CCN(Cc4cccc(S(=O)(=O)N5CCC(Nc6ncc(OC(F)F)cn6)CC5)c4)CC3)c21 (centres unmarked) [Example 128, 3-(4-(1-(3-((4-((5-(difluoromethoxy)-pyrimidin-2-yl)amino)piperidin-1-yl)sulfonyl)benzyl)piperidin-4-yl)-3-methyl-2-oxo-2,3-dihydro-1H-benzo[d]imidazol-1-yl)piperidine-2,6-dione]
100 to 500 | O=C1CCC(NC(=O)c2ccc(C3CCN(CC4CCN(c5cccc(S(=O)(=O)N6CCC(Nc7ncc(C(F)(F)F)cn7)CC6)c5)CC4)CC3)cc2F)C(=O)N1 (centres unmarked) [Example 236, N-(2,6-dioxopiperidin-3-yl)-2-fluoro-4-(1-((1-(3-((4-((5-(trifluoromethyl)pyrimidin-2-yl)amino)piperidin-1-yl)sulfonyl)phenyl)piperidin-4-yl)methyl)piperidin-4-yl)benzamide]
100 to 500 | Cn1cc(C2CCC(=O)NC2=O)c2ccc(C3CCN(CC4CCN(c5cccc(S(=O)(=O)N6CCC(Nc7ncc(Cl)cn7)CC6)c5)CC4)CC3)cc21 (centres unmarked) [Example 254, 3-(6-(1-((1-(3-((4-((5-chloropyrimidin-2-yl)amino)piperidin-1-yl)sulfonyl)phenyl)piperidin-4-yl)methyl)piperidin-4-yl)-1-methyl-1H-indol-3-yl)piperidine-2,6-dione]
100 to 500 | O=C1CCN(c2cnc3c(C4CCN(CC5CCN(c6cccc(S(=O)(=O)N7CCC(Nc8ncc(Cl)cn8)CC7)c6)CC5)CC4)cccn23)C(=O)N1 [Example 213, 1-(8-(1-((1-(3-((4-((5-chloropyrimidin-2-yl)amino)piperidin-1-yl)sulfonyl)phenyl)piperidin-4-yl)methyl)piperidin-4-yl)imidazo[1,2-a]pyridin-3-yl)dihydropyrimidine-2,4(1H,3H)-dione]
1 to 100 | Cn1nc(N2CCC(=O)NC2=O)c2ccc(C3CCN(CCOc4cccc(S(=O)(=O)N5CCC(Nc6ncc(Cl)cn6)CC5)c4)CC3)cc21 [Example 124, 1-(6-(1-(2-(3-((4-((5-chloropyrimidin-2-yl)amino)piperidin-1-yl)sulfonyl)phenoxy)-ethyl)piperidin-4-yl)-1-methyl-1H-indazol-3-yl)dihydropyrimidine-2,4(1H,3H)-dione]
500 to 2500 | Cn1nc(N2CCC(=O)NC2=O)c2ccc(C3CN(Cc4cccc(S(=O)(=O)N5CCC(Nc6ncc(OC(F)F)cn6)CC5)c4)C3)cc21 [Example 81, 1-(6-(1-(3-((4-((5-(difluoromethoxy)-pyrimidin-2-yl)amino)piperidin-1-yl)sulfonyl)benzyl)azetidin-3-yl)-1-methyl-1H-indazol-3-yl)dihydropyrimidine-2,4(1H,3H)-dione]
100 to 500 | Cn1nc(N2CCC(=O)NC2=O)c2ccc(C3CCN(C[C@H]4CCN(c5cccc(S(=O)(=O)N6CCC(Nc7ncc(Cl)cn7)CC6)c5)C4)CC3)cc21 [Example 144, (R)-1-(6-(1-((1-(3-((4-((5-chloropyrimidin-2-yl)amino)piperidin-1-yl)sulfonyl)phenyl)-pyrrolidin-3-yl)methyl)piperidin-4-yl)-1-methyl-1H-indazol-3-yl)dihydropyrimidine-2,4(1H,3H)-dione]
1 to 100 | Cn1nc(N2CCC(=O)NC2=O)c2ccc(C3CCN(Cc4cnn(-c5cccc(S(=O)(=O)N6CCC(Nc7ncc(Cl)cn7)CC6)c5)c4)CC3)cc21 [Example 131, 1-(6-(1-((1-(3-((4-((5-chloropyrimidin-2-yl)amino)piperidin-1-yl)sulfonyl)phenyl)-1H-pyrazol-4-yl)methyl)piperidin-4-yl)-1-methyl-1H-indazol-3-yl)dihydropyrimidine-2,4(1H,3H)-dione]
1 to 100 | Cn1nc(N2CCC(=O)NC2=O)c2ccc(C3CCN(CC4CC5(C4)CN(c4cccc(S(=O)(=O)N6CCC(Nc7ncc(Cl)cn7)CC6)c4)C5)CC3)cc21 [Example 132, 1-(6-(1-((2-(3-((4-((5-chloropyrimidin-2-yl)amino)piperidin-1-yl)sulfonyl)phenyl)-2-azaspiro[3.3]heptan-6-yl)methyl)piperidin-4-yl)-1-methyl-1H-indazol-3-yl)dihydropyrimidine-2,4(1H,3H)-dione]
